Results: patent publication US20080175800A1, “USE OF SPECIFIC MENTHYL 3-OXOCARBOXYLIC ACID ESTERS AS PHYSIOLOGICALLY ACTIVE COOLING SUBSTANCES” (SYMRISE GmbH & Co. KG, priority 2007, published 2008)

Tests used:
[1] = Sensory evaluation in confectioner's fondant by a panel of experts (cooling action); format: in vivo; conditions: 0.05 wt. % in confectioner's fondant; for cooling action: scale from 1 (no cooling action) to 9 (extremely strong cooling action)
Protocol: The compounds from Examples 1 and 2 were tested for their sensory properties, in particular their cooling action. To this end, they were dissolved, in each case in a specific final concentration, in a mass prepared from sucrose (saccharose) and water (confectioner's fondant, supplier Nordzucker AG, Nordstemmen) and evaluated by a panel of experts. Sensory impressions were rated and the cooling action was assessed on a scale from 1 (no cooling action) to 9 (extremely strong cooling action).

[2] = Skin-cooling characteristics, application site forearm; format: in vivo; conditions: forearm of human test subjects; compared with L-menthyl lactate (Frescolat ML)

Row | Compound | cooling action [1] | skin intensity of cooling [2] | onset and duration of cooling action ([1]; compared with Example 1)
1 | CC(=O)CC(=O)O[C@@H]1C[C@H](C)CC[C@H]1C(C)C [Example 1, (L)-menthyl 3-oxo-butyrate] | 5-6 | overall weaker intensity of cooling | 
2 | CCC(=O)CC(=O)O[C@@H]1C[C@H](C)CC[C@H]1C(C)C [Example 2, (L)-menthyl 3-oxo-pentanoate] | 5-6 | overall weaker intensity of cooling | slower onset but longer lasting than Example 1
